Laboratory results as given in publication PMC11412156 (Journal of medicinal chemistry, 2024).
Where “and” joins values, the source holds several entries; their conditions need not be identical. Identical values can stand only once.

What was measured:
HsEH = molecular target: T1, HsEH (Homo sapiens, UniProt P34913); experiment: fluorescent-based sEH assay with PHOME as substrate; type: biochemical
T1 sequence (P34913 1-555): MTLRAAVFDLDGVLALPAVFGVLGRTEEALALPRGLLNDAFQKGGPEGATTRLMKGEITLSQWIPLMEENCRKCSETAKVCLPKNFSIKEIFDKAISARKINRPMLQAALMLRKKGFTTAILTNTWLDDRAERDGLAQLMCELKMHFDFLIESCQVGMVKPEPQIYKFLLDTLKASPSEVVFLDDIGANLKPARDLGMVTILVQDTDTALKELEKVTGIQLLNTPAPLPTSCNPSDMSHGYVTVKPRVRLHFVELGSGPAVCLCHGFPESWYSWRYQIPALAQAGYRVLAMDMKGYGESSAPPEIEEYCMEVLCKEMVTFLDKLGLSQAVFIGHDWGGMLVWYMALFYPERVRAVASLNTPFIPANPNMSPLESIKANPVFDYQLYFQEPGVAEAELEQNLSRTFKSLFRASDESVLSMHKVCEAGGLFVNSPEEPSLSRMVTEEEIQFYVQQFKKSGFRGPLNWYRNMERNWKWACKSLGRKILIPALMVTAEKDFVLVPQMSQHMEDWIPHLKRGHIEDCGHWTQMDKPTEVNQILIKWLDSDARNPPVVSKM

HDAC6 = molecular target: T2, HDAC6 (Homo sapiens, UniProt Q9UBN7); experiment: HDAC enzyme-based fluorogenic assay, HDAC6; type: biochemical; settings: for HDAC6 inhibitor rate: final concentration of 2 μM, preliminary screen; for Selectivity Index HDAC1/HDAC6 / Selectivity Index HDAC2/HDAC6 / Selectivity Index HDAC3/HDAC6 / Selectivity Index HDAC8/HDAC6 / Selectivity Index HDAC11/HDAC6: ratio of IC50 values
T2 sequence (Q9UBN7 1-1215): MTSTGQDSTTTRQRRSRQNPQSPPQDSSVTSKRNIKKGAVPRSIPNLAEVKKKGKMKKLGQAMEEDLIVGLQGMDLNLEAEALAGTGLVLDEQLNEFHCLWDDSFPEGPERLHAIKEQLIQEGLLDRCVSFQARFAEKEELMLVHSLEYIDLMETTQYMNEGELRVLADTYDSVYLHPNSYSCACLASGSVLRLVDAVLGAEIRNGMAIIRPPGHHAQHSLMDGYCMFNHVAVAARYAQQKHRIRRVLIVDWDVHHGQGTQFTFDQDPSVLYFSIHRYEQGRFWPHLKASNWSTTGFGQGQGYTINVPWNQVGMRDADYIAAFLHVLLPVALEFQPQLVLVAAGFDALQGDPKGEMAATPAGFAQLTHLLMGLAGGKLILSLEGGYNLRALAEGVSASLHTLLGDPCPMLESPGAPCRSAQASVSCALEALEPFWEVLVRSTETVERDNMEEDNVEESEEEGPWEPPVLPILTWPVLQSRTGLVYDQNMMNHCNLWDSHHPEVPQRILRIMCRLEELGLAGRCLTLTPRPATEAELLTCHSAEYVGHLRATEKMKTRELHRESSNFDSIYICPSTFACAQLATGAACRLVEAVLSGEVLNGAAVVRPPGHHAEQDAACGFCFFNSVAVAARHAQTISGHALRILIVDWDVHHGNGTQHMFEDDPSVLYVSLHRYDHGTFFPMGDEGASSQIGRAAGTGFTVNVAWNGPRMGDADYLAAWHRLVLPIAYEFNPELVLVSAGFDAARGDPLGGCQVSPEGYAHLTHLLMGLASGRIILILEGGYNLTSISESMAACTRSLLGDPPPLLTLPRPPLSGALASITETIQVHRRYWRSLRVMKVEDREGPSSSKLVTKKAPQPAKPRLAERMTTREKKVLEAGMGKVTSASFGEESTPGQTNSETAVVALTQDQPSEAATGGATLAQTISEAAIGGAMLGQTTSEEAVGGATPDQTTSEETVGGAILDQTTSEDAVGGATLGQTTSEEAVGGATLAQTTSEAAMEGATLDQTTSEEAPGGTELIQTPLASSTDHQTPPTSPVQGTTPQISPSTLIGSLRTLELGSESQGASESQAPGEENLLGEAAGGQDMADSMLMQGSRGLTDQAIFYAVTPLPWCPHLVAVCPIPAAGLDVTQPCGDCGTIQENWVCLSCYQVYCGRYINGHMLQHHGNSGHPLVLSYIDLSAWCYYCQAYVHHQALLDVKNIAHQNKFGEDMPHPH

HDAC1 = HDAC1 (Homo sapiens, UniProt Q13547); experiment: HDAC enzyme-based fluorogenic assay, HDAC1; type: biochemical
Chain of HDAC1 (Q13547 whole entry): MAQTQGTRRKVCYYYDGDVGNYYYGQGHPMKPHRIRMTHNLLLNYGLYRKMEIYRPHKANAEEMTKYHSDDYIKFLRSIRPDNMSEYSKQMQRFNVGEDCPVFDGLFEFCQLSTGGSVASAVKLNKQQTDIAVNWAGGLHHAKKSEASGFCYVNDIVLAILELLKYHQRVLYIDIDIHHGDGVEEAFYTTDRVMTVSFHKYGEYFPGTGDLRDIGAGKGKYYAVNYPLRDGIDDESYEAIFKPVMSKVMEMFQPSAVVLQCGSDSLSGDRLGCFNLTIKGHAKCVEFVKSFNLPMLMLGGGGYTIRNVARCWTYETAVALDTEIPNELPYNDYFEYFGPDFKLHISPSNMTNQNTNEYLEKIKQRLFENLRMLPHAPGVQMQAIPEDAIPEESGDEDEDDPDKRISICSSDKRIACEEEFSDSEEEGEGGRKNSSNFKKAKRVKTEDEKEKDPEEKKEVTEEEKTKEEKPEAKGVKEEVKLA

MsEH = molecular target: T3, MsEH (Mus musculus, UniProt P34914); experiment: fluorescent-based sEH assay with PHOME as substrate; type: biochemical
T3 sequence (P34914 1-554): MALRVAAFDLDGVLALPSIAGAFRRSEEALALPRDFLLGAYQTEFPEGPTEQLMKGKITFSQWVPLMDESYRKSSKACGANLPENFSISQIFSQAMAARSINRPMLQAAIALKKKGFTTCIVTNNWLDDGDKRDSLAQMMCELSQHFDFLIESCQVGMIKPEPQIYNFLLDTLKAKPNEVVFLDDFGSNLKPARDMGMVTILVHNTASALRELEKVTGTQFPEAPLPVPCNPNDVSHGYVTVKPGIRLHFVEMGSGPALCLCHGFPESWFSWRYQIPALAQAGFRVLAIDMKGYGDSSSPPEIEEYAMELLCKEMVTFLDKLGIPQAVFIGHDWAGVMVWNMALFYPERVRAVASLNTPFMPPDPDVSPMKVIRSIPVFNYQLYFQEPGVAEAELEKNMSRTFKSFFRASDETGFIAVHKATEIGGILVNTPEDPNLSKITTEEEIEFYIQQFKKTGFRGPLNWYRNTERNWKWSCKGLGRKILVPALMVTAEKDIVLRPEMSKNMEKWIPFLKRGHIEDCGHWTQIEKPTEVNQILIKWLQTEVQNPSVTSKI

HDAC2 = HDAC2 (Homo sapiens, UniProt Q92769); experiment: HDAC enzyme-based fluorogenic assay, HDAC2; type: biochemical
Chain of HDAC2 (Q92769 whole entry): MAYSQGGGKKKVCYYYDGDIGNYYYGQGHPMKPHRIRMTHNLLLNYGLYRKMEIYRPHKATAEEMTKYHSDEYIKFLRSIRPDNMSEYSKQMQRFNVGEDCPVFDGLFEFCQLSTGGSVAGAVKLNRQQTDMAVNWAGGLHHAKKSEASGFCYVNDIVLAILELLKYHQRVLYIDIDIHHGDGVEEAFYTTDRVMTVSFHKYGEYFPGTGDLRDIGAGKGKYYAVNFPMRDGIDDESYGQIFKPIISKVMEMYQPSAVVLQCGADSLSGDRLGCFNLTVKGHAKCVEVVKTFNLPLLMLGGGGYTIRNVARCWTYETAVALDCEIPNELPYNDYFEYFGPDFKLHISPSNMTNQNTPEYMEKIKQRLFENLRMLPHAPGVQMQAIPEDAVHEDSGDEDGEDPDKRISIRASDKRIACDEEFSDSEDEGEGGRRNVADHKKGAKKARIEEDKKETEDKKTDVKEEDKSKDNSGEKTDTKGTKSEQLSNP

[1] = Plasma protein binding by equilibrium dialysis; type: in vitro ADME; settings: rat
HDAC3 = HDAC3 (Homo sapiens, UniProt O15379); experiment: HDAC enzyme-based fluorogenic assay, HDAC3; type: biochemical
Chain of HDAC3 (O15379 whole entry): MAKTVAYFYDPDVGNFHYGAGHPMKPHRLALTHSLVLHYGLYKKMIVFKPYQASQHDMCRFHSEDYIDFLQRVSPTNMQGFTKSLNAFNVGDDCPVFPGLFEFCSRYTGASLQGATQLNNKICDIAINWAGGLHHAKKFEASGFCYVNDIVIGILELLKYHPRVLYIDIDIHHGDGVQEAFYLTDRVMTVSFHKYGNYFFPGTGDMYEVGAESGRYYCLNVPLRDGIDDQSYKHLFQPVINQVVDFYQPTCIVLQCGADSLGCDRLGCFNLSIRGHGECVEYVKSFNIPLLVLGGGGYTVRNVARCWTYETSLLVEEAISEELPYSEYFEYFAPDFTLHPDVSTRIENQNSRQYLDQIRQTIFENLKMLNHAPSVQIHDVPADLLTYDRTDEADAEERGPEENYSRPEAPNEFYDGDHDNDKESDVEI
Chain of HDAC3 (Q9Y618 395-489 partner limits assumed): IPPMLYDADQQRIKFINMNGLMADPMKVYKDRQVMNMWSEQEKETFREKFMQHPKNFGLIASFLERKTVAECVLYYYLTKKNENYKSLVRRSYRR

HDAC11 = molecular target: T4, HDAC11 (Homo sapiens, UniProt Q96DB2); experiment: HDAC enzyme-based fluorogenic assay, HDAC11; type: biochemical
T4 sequence (Q96DB2 1-347): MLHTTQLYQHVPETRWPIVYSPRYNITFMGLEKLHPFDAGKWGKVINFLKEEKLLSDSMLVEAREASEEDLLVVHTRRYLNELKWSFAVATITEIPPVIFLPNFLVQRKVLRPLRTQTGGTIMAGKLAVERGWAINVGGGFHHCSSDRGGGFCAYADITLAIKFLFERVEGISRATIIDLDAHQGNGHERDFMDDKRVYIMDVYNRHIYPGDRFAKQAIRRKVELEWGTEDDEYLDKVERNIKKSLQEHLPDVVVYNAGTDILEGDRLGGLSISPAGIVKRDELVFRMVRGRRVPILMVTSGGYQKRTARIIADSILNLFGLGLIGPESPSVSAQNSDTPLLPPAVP

SMILES	IC50 (HsEH) [nM]	IC50 (HDAC6) [nM]	HDAC6 inhibitor rate (HDAC6)	Selectivity Index HDAC1/HDAC6 (HDAC6)	Selectivity Index HDAC2/HDAC6 (HDAC6)	Selectivity Index HDAC3/HDAC6 (HDAC6)	Selectivity Index HDAC8/HDAC6 (HDAC6)	Selectivity Index HDAC11/HDAC6 (HDAC6)	IC50 (HDAC1) [nM]	IC50 (MsEH) [nM]	IC50 (HDAC2) [nM]	fraction unbound [1]	IC50 (HDAC3) [nM]	IC50 (HDAC11) [nM]
O=C(CCCCCCNC(=O)[C@H]1CCCN(C(=O)c2ccc(NC(=O)Nc3cc(F)cc(F)c3)c(F)c2)C1)NO [Compound 28j, (S)-1-(4-(3-(3,5-Difluorophenyl)ureido)-3-fluorobenzoyl)-N-(7-(hydroxyamino)-7-oxoheptyl)piperidine-3-carboxamide]	3.6	8	> 91% and 98.92%	129	134	327	9	132	1030	103	1070	0.119	2620	1050
O=C(CCCCCCNC(=O)[C@H]1CCCN(C(=O)c2ccc(NC(=O)Nc3ccc(Cl)c(F)c3)c(F)c2)C1)NO [Compound 28g, (S)-1-(4-(3-(4-Chloro-3-fluorophenyl)ureido)-3-fluorobenzoyl)-N-(7-(hydroxyamino)-7-oxoheptyl)piperidine-3-carboxamide]	0.9	8	> 91% and 99.78%	144	62	160	8	58	1150	46.8	492	0.113	1280	464
